Assay results reported in US9260481B2, “Peptide derivatives as antibiotics” (priority 2011, dated 2016).
≈ marks a conversion by molar mass, not a printed value. Read-outs that look alike come from different tables or passages of the source. Numbered stars: 1 amine (or outer) side, 2 acyl side, 3 side chain; on linkers, the order of the positions; unused ones are H or OH. Square brackets hold non-standard residues; d marks the D form. Peptide text beside a SMILES is read from it. * marks the point of attachment. ξ: configuration not given here. X1 = NCC(O)CCC(N[*:1])C(=O)[*:2]; ΔZArg = N=C(N)NCC/C=C(\N)C(=O)O; ξDab(3-OH) = NCC(O)C(N)C(=O)O; Orn = NCCC[CH](N)C(=O)O; NH(CH2)4NH2 = NCCCCN*

What was measured:
[1] = tested on: S. aureus ATCC 13709; assay: Bacterial killing curves (time-to-kill); format: cell-based, Staphylococcus aureus; conditions: growing S. aureus ATCC 13709, at four-fold the MIC
Method: Bacterial killing curves were carried out by inoculating S. aureus ATCC 13709 and P. aeruginosa ATCC 27853 with Odilomycin A concentration equal to four-fold the MIC. […] S. aureus and P. aeruginosa inoculi were prepared from colonies grown overnight in MHB. Antibiotics concentrations in the flask were adjusted in MHB according to the desired concentration. Culture tubes containing 10 mL were inoculated with S. aureus or P. aeruginosa at an approximate inoculum of 10^5 CFU/mL. Samples were drawn and bacteria were counted at 0, 1, 2, 3, 4, 6 and 24 h of incubation at 37° C. Thus, after vortexing the culture tubes, two 50 μL samples were removed and serially diluted with MHB. After each dilution step, 20 μL was plated onto LB agar plates, which were incubated for 24 h at 37° C. Afterwards the colonies were counted and back-extrapolated to the original volume to determine the initial concentration (CFU/mL).

[2] = tested on: K. pneumoniae ATCC 43816; format: cell-based, Klebsiella pneumoniae; conditions: ATCC 43816
Description: Vancomycin, rifampicin, kanamycin, gentamicin, ampicillin, ciprofloxacin and tetracycline (Sigma-Aldrich) were provided as standard powders by the manufacturers.

[3] = tested on: Haemophilus influenzae
Method: (§1) The minimal inhibitory concentrations (MIC) were determined according to the Clinical and Laboratory Standards Institute (CLSI) conditions guidelines detailed in Table 7. Assays were performed in triplicate.
(§2) Preparation of Inocula. Five to 10 well-isolated colonies were picked and resuspended in 3 ml sterile saline. The inoculum was re-suspended by vigorous shaking on a vortex mixer for 15 s. Turbidity was adjusted to McFarland standard 0.5 ([…]). The inoculum was further diluted in the appropriate media (Table 7) to give a final inoculum in each well of ˜2-8×10^5 CFU/ml.
(§3) Addition of Test Article. Stock solutions of Odilomycin A or comparator were diluted in the appropriate media to give a maximum starting concentration of 50 μg/mL in the assay. 50 μL of medium was dispensed into each well in columns two to 12 of a 96 well plate. 100 μL of the appropriate test compound solution (100 μg/mL) was dispensed into each well in column one. In the case of M. catarrhalis, M. haemolytica and P. multocida these values were doubled (a final assay volume of 200 μL was used). […] Columns 11 and 12 served as positive (no drug or test article, inoculum added), and negative (no drug, test article, or inoculum added) growth controls respectively.
(§4) Addition of Bacterial Strains. 50 μL of each inoculum suspension was added to the appropriate wells, resulting in a final volume of 100 μL consisting of 50 μL diluted compound or diluents, and 50 μL of inoculum or broth alone.

[4] = tested on: Streptococcus pneumonia
Method: as §1, §2, §3, §4

[5] = tested on: Enterococcus faecium
Method: as §1, §2, §3, §4

[6] = tested on: Streptococcus pyogenes
Method: as §1, §2, §3, §4

[7] = tested on: Enterococcus faecalis
Method: as §1, §2, §3, §4

[8] = tested on: Moraxella catarrhalis
Method: as §1, §2, §3, §4

[9] = tested on: Mannheimia haemolytica
Method: as §1, §2, §3, §4

[10] = tested on: Pseudomonas aeruginosa; conditions: for Antibacterial activity (MIC): unit not given in table (MICs in μg/mL)
Method: as §1, §2, §3, §4

[11] = tested on: Proprionibacterium acnes; conditions: P. acnes ATCC 6919
Method: as §1, §2, §3, §4

[12] = tested on: Enterobacter cloacae
Method: as §1, §2, §3, §4

[13] = tested on: Stenotrophomonas maltophilia
Method: as §1, §2, §3, §4

[14] = tested on: Bacillus subtilis
Method: as §1, §2, §3, §4

[15] = tested on: Staphylococcus epidermidis
Method: as §1, §2, §3, §4

[16] = tested on: Klebsiella oxytoca
Method: as §1, §2, §3, §4

[17] = tested on: Klebsiella pneumoniae; conditions: K. pneumoniae
Method: as §1, §2, §3, §4

[18] = tested on: Acinetobacter baumannii
Method: as §1, §2, §3, §4

[19] = tested on: Escherichia coli
Method: as §1, §2, §3, §4

[20] = tested on: Pasteurella multocida
Method: as §1, §2, §3, §4

[21] = tested on: S. aureus ATCC 13709; assay: MBC in presence of human serum; format: cell-based, Staphylococcus aureus; conditions: for MBC S. aureus ATCC 13709: unit not given (Table 10: μg/mL)
Method: Minimal bactericidal concentrations (MBCs) were established by extending the MIC procedure to the evaluation of bactericidal activity. After 24 hours, 10 μL were drawn from the wells, serially diluted and then spotted onto suitable agar plates. The plates were incubated at 37° C. overnight. […] All the experiments were done in triplicate.
MBCs were also determined in presence of 50% and 95% (v/v) of human serum to assess protein binding.

[22] = tested on: Bacteroides fragilis; assay: microbe, parasite or virus in culture
Method: as §1, §2, §3, §4

[23] = tested on: Staphylococcus aureus; assay: microbe, parasite or virus in culture; conditions: for Antibacterial activity (MIC): unit not given in table (MICs in μg/mL)
Method: as §1, §2, §3, §4

N=C(N)NCC/C=C(\NC(=O)C(CCC(O)CN)NC(=O)C(Cc1cnc[nH]1)NC(=O)C1CCCN1C(=O)C(CCCN)NC(=O)CNC(=O)C(NC(=O)C(NC(=O)C(N)CCCCN)C(O)CN)C(O)CN)C(=O)NC(CCC(O)CN)C(=O)NCCCCN (stereo not drawn) [Odilomycin A, Lys-(3-hydroxy-2,4-diaminobutanoic acid)-(3-hydroxy-2,4-diaminobutanoic acid)-Gly-Ornithine-Pro-His-(5-hydroxylysine)-(2,3-dehydroarginine)-(5-hydroxylysine)-(1,4-diaminobutane)] (H-K[ξDab(3-OH)][ξDab(3-OH)]G[Orn]PH[X1][ΔZArg][X1]-{NH(CH2)4NH2}; configuration not given here)
Time to kill 100% of bacteria [1]: ≤ 3 h | MIC antibiotic alone [2]: 25 µg/mL (≈ 19.3 µM) | MIC [3]: 12.5 µg/mL (≈ 9.64 µM) | MIC [4]: >50.0 µg/mL | antibacterial activity ([4]; S. pneumoniae): Weak or no antibacterial activity | MIC [5]: 25.0 µg/mL (≈ 19.3 µM) | antibacterial activity ([5]; E. faecium): Weak or no antibacterial activity | MIC [6]: 50.0 µg/mL (≈ 38.6 µM) | antibacterial activity ([6]; S. pyogenes): Weak or no antibacterial activity | MIC [7]: >50.0 µg/mL | antibacterial activity ([7]; E. faecalis): Weak or no antibacterial activity | MIC [8]: 1.56 µg/mL (≈ 1.2 µM) | MICs [8]: < 10 µg/mL | MIC [9]: 50.0 µg/mL (≈ 38.6 µM) | MIC [10]: 3.12 µg/mL (≈ 2.41 µM) | MICs [10]: < 10 µg/mL | MIC ([10]; P. aeruginosa ATCC 27853): 3.13 µg/mL (≈ 2.41 µM) | Antibacterial activity (MIC) ([10]; P. aeruginosa multiresistant clinical isolate 5618): 6.25 | Antibacterial activity (MIC) ([10]; P. aeruginosa multiresistant clinical isolate 35170): >50 | Antibacterial activity (MIC) ([10]; P. aeruginosa multiresistant clinical isolate 42162): 25 | Antibacterial activity (MIC) ([10]; P. aeruginosa multiresistant clinical isolate 401681): 25 | Antibacterial activity (MIC) ([10]; P. aeruginosa multiresistant clinical isolate 512232): 3.12 | MIC [11]: 3.13 µg/mL (≈ 2.41 µM) | MIC [12]: 1.56 µg/mL (≈ 1.2 µM) | MICs [12]: < 10 µg/mL | MIC [13]: 6.25 µg/mL (≈ 4.82 µM) | MICs [13]: < 10 µg/mL | MIC [14]: <0.20 µg/mL | MICs [14]: < 1 µg/mL | MIC [15]: <0.20 µg/mL | MICs [15]: < 1 µg/mL | MIC [16]: 0.39 µg/mL (≈ 0.301 µM) | antibacterial activity ([16]; K. oxytoca): strong | antibacterial activity [17]: strong | MIC [18]: 6.25 µg/mL (≈ 4.82 µM) | MICs [18]: < 10 µg/mL | MICs [19]: < 10 µg/mL | MIC ([19]; E. coli CTX-M14 clinical isolate AEC7): 3.13 µg/mL (≈ 2.41 µM) | MIC ([19]; E. coli CTX-M15 clinical isolate MEC23): 3.13 µg/mL (≈ 2.41 µM) | MIC [20]: 25.0 µg/mL (≈ 19.3 µM) | effect of serum proteins on antibacterial activity ([21]; 50% and 95% (v/v) human serum, S. aureus ATCC 13709): weakly affected | MBC S. aureus ATCC 13709 ([21]; Serum 0 % (v/v)): 0.78 | MBC S. aureus ATCC 13709 ([21]; human serum 50 % (v/v)): 1.56 | MBC S. aureus ATCC 13709 ([21]; human serum 95 % (v/v)): 1.56 | MIC [22]: 1.56 µg/mL (≈ 1.2 µM) | MICs [23]: < 1 µg/mL | Antibacterial activity (MIC) ([23]; S. aureus multiresistant clinical isolate 16666): <0.19 | Antibacterial activity (MIC) ([23]; S. aureus multiresistant clinical isolate 20364): 0.78 | Antibacterial activity (MIC) ([23]; S. aureus multiresistant clinical isolate 20681): 1.56 | Antibacterial activity (MIC) ([23]; S. aureus multiresistant clinical isolate 21840): 0.39 | Antibacterial activity (MIC) ([23]; S. aureus multiresistant clinical isolate 23305): 0.78
